The values below are quoted from earlier work in patent US20110014269A1, “CIVAMIDE PATCH FOR LOCALIZED POST-INCISIONAL NEUROPATHIC PAIN” (WINSTON LABORATORIES, INC., priority 2009, published 2011).

Molecules are shown by their SMILES.

For the data set the following is noted: treatment of painful, inflammatory or allergic disorders.

Consider `COc1cc(CNC(=O)CCCC/C=C\C(C)C)ccc1O` [Civamide, cis-8-methyl-N-vanillyl-6-nonenamide], for which the “burning and stinging relative to capsaicin's use” value was “significantly less”.
